Measurements as given in patent publication US10005824B2, “Selective PYY compounds and uses thereof” (Novo Nordisk A/S, priority 2015, dated 2018).
Like-named read-outs stand apart in the source and are kept apart here.

Assays:
[1] = molecular target: T1, human NPY Y2 receptor (Homo sapiens, UniProt P49146); assay: Actone functional potency assay (Y2 in vitro potency, whole cell); assay type: cell-based
T1 construct: host or cells: HEK-293 cells that also express a cAMP-sensitive calcium channel
T1 sequence (P49146 1-381): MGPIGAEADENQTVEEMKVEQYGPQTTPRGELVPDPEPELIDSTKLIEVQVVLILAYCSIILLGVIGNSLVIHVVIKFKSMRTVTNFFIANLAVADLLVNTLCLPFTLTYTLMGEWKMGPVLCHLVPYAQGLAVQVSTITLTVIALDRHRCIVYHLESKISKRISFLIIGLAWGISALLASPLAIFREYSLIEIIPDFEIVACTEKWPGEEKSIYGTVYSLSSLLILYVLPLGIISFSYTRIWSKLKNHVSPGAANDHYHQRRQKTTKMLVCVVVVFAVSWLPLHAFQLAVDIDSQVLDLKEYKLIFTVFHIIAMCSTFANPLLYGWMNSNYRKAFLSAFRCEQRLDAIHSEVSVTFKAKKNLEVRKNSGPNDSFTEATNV
Description: The purpose of this example is to test the activity, or potency, of the PYY compounds in vitro. The Y2 in vitro potency is the measure of the activation of the human Y2 receptor subtype in a whole cell assay.
Actone Functional Potency Assay
The Neuropeptide Y (NPY) receptors are Gi-coupled seven trans-membrane receptors that mainly signal through the cAMP dependent pathway by inhibiting adenylate cyclase activity which results in a decrease of cAMP production from ATP. The Actone assay is based on a modified calcium channel that has a selective binding for cAMP, resulting in cellular calcium influx, detected by a calcium responsive dye. In order to measure decreased levels of cAMP, as result of NPY receptor activation, the β1/β2-adrenoreceptor agonist, isoproterenol, is added to activate adenylate cyclase and increases cAMP levels in the cell. Decreased cellular calcium concentrations, reflecting a decrease of cAMP levels due to NPY receptor activation, is detected as a decrease in fluorescence from the calcium sensitive dye.

[2] = molecular target: T2, human Y1 receptor (Homo sapiens, UniProt P25929); assay: Scintillation proximity assay (SPA) receptor binding, Y1
T2 construct: expressed in transfected cells; host or cells: BHK-21 clone 6-482-8, IPTG-induced (membrane preparation)
T2 sequence (P25929 1-384): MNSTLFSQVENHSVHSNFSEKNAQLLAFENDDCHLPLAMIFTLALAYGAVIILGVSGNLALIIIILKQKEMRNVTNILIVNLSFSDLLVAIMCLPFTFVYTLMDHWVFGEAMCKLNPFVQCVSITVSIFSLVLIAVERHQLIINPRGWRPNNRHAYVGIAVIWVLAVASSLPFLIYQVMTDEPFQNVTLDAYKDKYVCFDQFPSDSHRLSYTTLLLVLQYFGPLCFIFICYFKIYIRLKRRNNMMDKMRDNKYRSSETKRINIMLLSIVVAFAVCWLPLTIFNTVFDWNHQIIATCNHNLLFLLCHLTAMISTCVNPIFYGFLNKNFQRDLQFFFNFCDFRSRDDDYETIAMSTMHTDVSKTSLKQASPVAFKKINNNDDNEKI
Protocol: (§1) The purpose of this example is to test the in vitro binding of the PYY compounds to the Y1, Y2, Y4 and Y5 receptor subtypes, respectively. The receptor binding affinity is a measure of affinity of a compound for the human Y1, Y2, Y4 and Y5 receptor subtypes, respectively.
(§2) Scintillation Proximity Assay (SPA)
(§3) NPY-Receptor Expressing Cell Lines.
(§4) All cells were cultured at +37° C. in a humidified atmosphere with 5% CO2. […] CHO-K1 cells stably expressing the human Y2 receptor (P49146, NPY2R_HUMAN, Uniprot) were cultured in DMEM F-12 with 10% FBS, 1% P/S, 150 μg/ml Hygromycin B and 10 μg/ml Puromycin antibiotic. CHO-K1 cells stably expressing the human Y4 receptor (P50391, NPY4R_HUMAN, Uniprot) were cultured in DMEM F-12 with 10% FBS, 1% P/S, 10 μg/ml Puromycin. HEK-293 cells stably expressing the human Y5 receptor (Q15761, NPY5R_HUMAN, Uniprot) were cultured in DMEM F-12 medium containing 10% FBS, 1% Penicillin-Streptomycin, 250 μg/ml G418 and 1 μg/ml puromycin.
(§5) The homogenate was centrifuged at 35000 g using an ultracentrifuge for 10 minutes at +4° C. and the supernatant was discarded and fresh homogenization buffer added. Homogenization of the pellet was repeated a total of three times.
(§6) Human Y receptor SPA binding assay were performed in white 96-well plates in a total volume of 200 μl per well.
(§7) Plates were sealed and incubated at +25° C. for 2 hours in a plate shaker set at 400 rpm and thereafter centrifuged at 1500 rpm for 10 minutes prior to reading of luminescence on a microplate scintillation and luminescence counter. […] Displacement of radioligand was measured as reduction in luminescence and IC50 values were calculated by nonlinear regression analysis of sigmoidal dose-response curves.

[3] = molecular target: T3, human Y4 receptor (Homo sapiens, UniProt P50391); assay: Scintillation proximity assay (SPA) receptor binding, Y4; settings: membranes of CHO-K1 cells, [125I]-Pancreatic Polypeptide
T3 construct: expressed in transfected cells; host or cells: CHO-K1 (membrane preparation)
Protocol: as §1, §2, §3, §4, §5, §6, §7

T3 sequence (P50391 whole entry): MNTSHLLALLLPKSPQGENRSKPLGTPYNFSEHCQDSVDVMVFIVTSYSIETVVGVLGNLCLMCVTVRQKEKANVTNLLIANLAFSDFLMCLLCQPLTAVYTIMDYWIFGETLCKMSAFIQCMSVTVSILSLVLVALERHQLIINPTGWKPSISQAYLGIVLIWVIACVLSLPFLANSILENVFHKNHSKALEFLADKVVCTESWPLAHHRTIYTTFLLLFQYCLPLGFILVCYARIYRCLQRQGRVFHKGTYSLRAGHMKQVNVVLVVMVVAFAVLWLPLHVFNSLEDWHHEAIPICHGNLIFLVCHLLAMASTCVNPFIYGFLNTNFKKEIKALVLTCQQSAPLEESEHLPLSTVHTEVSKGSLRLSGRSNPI

SMILES	EC50 [1] [nM]	Ki [2] [nM]	Ki ([3]; Y4 Ki) [nM]	Ki ([2]; membranes of BHK-21 cells, [125I]-PYY(1-36), read-out: Y1 Ki) [nM]	Ki ([3]; read-out: Y4 Ki) [nM]
CC(C)CC(=O)N[C@@H](CCCNC(=N)N)C(=O)N1CCC[C@H]1C(=O)N[C@@H](CCC(=O)O)C(=O)N[C@@H](CCCCNC(=O)CC[C@H](NC(=O)CCCCCCCCCCCCCCCCC(=O)O)C(=O)O)C(=O)N1CCC[C@H]1C(=O)N[C@H](C(=O)N[C@@H](CCC(=O)O)C(=O)N[C@@H](CC(=O)O)C(=O)N[C@@H](C)C(=O)N[C@@H](CO)C(=O)N1CCC[C@H]1C(=O)N[C@@H](CCC(=O)O)C(=O)N[C@@H](CCC(=O)O)C(=O)N[C@@H](CC(C)C)C(=O)N[C@@H](CCC(N)=O)C(=O)N[C@@H](CCCNC(=N)N)C(=O)N[C@@H](Cc1ccc(O)cc1)C(=O)N[C@@H](Cc1ccc(O)cc1)C(=O)N[C@@H](CCC(N)=O)C(=O)N[C@@H](CO)C(=O)N[C@@H](CC(C)C)C(=O)N[C@@H](CCCNC(=N)N)C(=O)N[C@@H](Cc1c[nH]cn1)C(=O)N[C@@H](Cc1ccc(O)cc1)C(=O)N[C@@H](Cc1ccc(O)cc1)C(=O)N[C@@H](CC(N)=O)C(=O)N[C@@H](Cc1c[nH]c2ccccc12)C(=O)N[C@@H](CC(C)C)C(=O)N[C@H](C(=O)N[C@@H](CCCNC(=N)N)C(=O)N[C@@H](CCC(N)=O)C(=O)N[C@@H](CCCNC(=N)N)C(=O)N[C@@H](Cc1ccc(O)cc1)C(N)=O)[C@@H](C)O)[C@@H](C)O [Compound 43, N{alpha-4}-(3-Methylbutanoyl)-N{Epsilon-7}-[(4S)-4-carboxy-4-(17-carboxy-heptadecanoylamino)butanoyl]-[Arg4,Lys7,Thr9,Gln18,Gln22,Tyr28,Trp30,Leu31]hPYY(4-36)]	0.77	> 10000	–	–	–
CC(C)CC(=O)N[C@@H](CCCNC(=N)N)C(=O)N1CCC[C@H]1C(=O)N[C@@H](CCC(=O)O)C(=O)N[C@@H](C)C(=O)N1CCC[C@H]1C(=O)NCC(=O)N[C@@H](CCCCNC(=O)COCCOCCNC(=O)COCCOCCNC(=O)CC[C@H](NC(=O)CCCCCCCCCCCCCCCCC(=O)O)C(=O)O)C(=O)N[C@@H](CC(=O)O)C(=O)N[C@@H](C)C(=O)N[C@@H](CO)C(=O)N1CCC[C@H]1C(=O)N[C@@H](CCC(=O)O)C(=O)N[C@@H](CCC(=O)O)C(=O)N[C@@H](CC(C)C)C(=O)N[C@@H](CCC(N)=O)C(=O)N[C@@H](CCCNC(=N)N)C(=O)N[C@@H](Cc1ccc(O)cc1)C(=O)N[C@@H](Cc1ccc(O)cc1)C(=O)N[C@@H](CCC(=O)O)C(=O)N[C@@H](CO)C(=O)N[C@@H](CC(C)C)C(=O)N[C@@H](CCCNC(=N)N)C(=O)N[C@@H](Cc1c[nH]cn1)C(=O)N[C@@H](Cc1ccc(O)cc1)C(=O)N[C@@H](Cc1ccc(O)cc1)C(=O)N[C@@H](CC(N)=O)C(=O)N[C@@H](Cc1c[nH]c2ccccc12)C(=O)N[C@@H](CC(C)C)C(=O)N[C@H](C(=O)N[C@@H](CCCNC(=N)N)C(=O)N[C@@H](CCC(N)=O)C(=O)N[C@@H](CCCNC(=N)N)C(=O)N[C@@H](Cc1ccc(O)cc1)C(N)=O)[C@@H](C)O [Compound 51, N{alpha-4}-(3-Methylbutanoyl)-N{Epsilon-10}-[2-[2-[2-[[2-[2-[2-[[(4S)-4-carboxy-4-(17-carboxyheptadecanoylamino)butanoyl]amino]ethoxy]ethoxy]acetyl]-amino]ethoxy]ethoxy]acetyl]-[Arg4,Lys10,Gln18,Glu22,Tyr28,Trp30,Leu31]-PYY(4-36)]	–	2410	> 10000	–	–
CC(C)CC(=O)N[C@@H](CCCNC(=N)N)C(=O)N1CCC[C@H]1C(=O)N[C@@H](CCC(=O)O)C(=O)N[C@@H](C)C(=O)N1CCC[C@H]1C(=O)NCC(=O)N[C@@H](CCCCNC(=O)COCCOCCNC(=O)COCCOCCNC(=O)CC[C@H](NC(=O)CCCCCCCCCCCCCCCCC(=O)O)C(=O)O)C(=O)N[C@@H](CC(=O)O)C(=O)N[C@@H](C)C(=O)N[C@@H](CO)C(=O)N1CCC[C@H]1C(=O)N[C@@H](CCC(=O)O)C(=O)N[C@@H](CCC(=O)O)C(=O)N[C@@H](CC(C)C)C(=O)N[C@@H](CCC(N)=O)C(=O)N[C@@H](CCCNC(=N)N)C(=O)N[C@@H](Cc1ccc(O)cc1)C(=O)N[C@@H](Cc1ccc(O)cc1)C(=O)N[C@@H](C)C(=O)N[C@@H](CCC(=O)O)C(=O)N[C@@H](CC(C)C)C(=O)N[C@@H](CCCNC(=N)N)C(=O)N[C@@H](Cc1c[nH]cn1)C(=O)N[C@@H](Cc1ccc(O)cc1)C(=O)N[C@@H](Cc1ccc(O)cc1)C(=O)N[C@@H](CC(N)=O)C(=O)N[C@@H](Cc1c[nH]c2ccccc12)C(=O)N[C@@H](CC(C)C)C(=O)N[C@H](C(=O)N[C@@H](CCCNC(=N)N)C(=O)N[C@@H](CCC(N)=O)C(=O)N[C@@H](CCCNC(=N)N)C(=O)N[C@@H](Cc1ccc(O)cc1)C(N)=O)[C@@H](C)O [Compound 52, N{alpha-4}-(3-Methylbutanoyl)-N{Epsilon-10}-[2-[2-[2-[[2-[2-[2-[[(4S)-4-carboxy-4-(17-carboxyheptadecanoylamino)butanoyl]amino]ethoxy]ethoxy]acetyl]amino]-ethoxy]ethoxy]acetyl]-[Arg4,Lys10,Gln18,Glu23,Tyr28,Trp30,Leu31]-PYY(4-36)]	–	–	–	> 10000	5690
CC(C)CC(=O)N[C@@H](CCCNC(=N)N)C(=O)N1CCC[C@H]1C(=O)N[C@@H](CCC(=O)O)C(=O)N[C@@H](C)C(=O)N1CCC[C@H]1C(=O)N1CCC[C@H]1C(=O)N[C@@H](CCCCNC(=O)CC[C@H](NC(=O)COCCOCCNC(=O)CC[C@H](NC(=O)CCCCCCCCCCCCCCCCC(=O)O)C(=O)O)C(=O)O)C(=O)N[C@@H](CC(=O)O)C(=O)N[C@@H](C)C(=O)N[C@@H](CO)C(=O)N1CCC[C@H]1C(=O)N[C@@H](CCC(=O)O)C(=O)N[C@@H](CCC(=O)O)C(=O)N[C@@H](CC(C)C)C(=O)N[C@@H](CCC(N)=O)C(=O)N[C@@H](CCCNC(=N)N)C(=O)N[C@@H](Cc1ccc(O)cc1)C(=O)N[C@@H](Cc1ccc(O)cc1)C(=O)N[C@@H](CCC(=O)O)C(=O)N[C@@H](CO)C(=O)N[C@@H](CC(C)C)C(=O)N[C@@H](CCCNC(=N)N)C(=O)N[C@@H](Cc1c[nH]cn1)C(=O)N[C@@H](Cc1ccc(O)cc1)C(=O)N[C@@H](Cc1ccc(O)cc1)C(=O)N[C@@H](CC(N)=O)C(=O)N[C@@H](Cc1c[nH]c2ccccc12)C(=O)N[C@@H](CC(C)C)C(=O)N[C@H](C(=O)N[C@@H](CCCNC(=N)N)C(=O)N[C@@H](CCC(N)=O)C(=O)N[C@@H](CCCNC(=N)N)C(=O)N[C@@H](Cc1ccc(O)cc1)C(N)=O)[C@@H](C)O [Compound 54, N{alpha-4}-(3-Methylbutanoyl)-N{Epsilon-10}-[(4S)-4-carboxy-4-[[2-[2-[2-[[(4S)-4-carboxy-4-(17-carboxyheptadecanoylamino)butanoyl]amino]ethoxy]ethoxy]-acetyl]amino]butanoyl]-[Arg4,Pro9,Lys10,Gln18,Glu22,Tyr28,Trp30,Leu31]-PYY(4-36)]	1.6	–	–	–	–
